Reference: publication PMC12722920, “Pharmacokinetics and pharmacodynamics of cannabigerol (CBG) in the C57BL/6Crl mouse” (Frontiers in Pharmacology, 2025)
Read-outs that look alike come from different tables or passages of the source.

What was measured:
C57BL/6Crl mice [1] = assay: Open field test (OFT): locomotion and anxiety-like behaviour; type: in vivo; conditions: for OFT time in the center: compared to the vehicle
Description: Catalepsy was assessed in the ring holding assay; mice were positioned with their forepaws grasping onto a 0.5 cm thick ring clamp elevated 5 cm above the testing surface. The duration of time while the ring was held was recorded in seconds, with each trial terminated if the mouse’s forepaw released from the bar, upon turning of the head or body, or after 60 s of immobility. Catalepsy was evaluated three times consecutively, and the average time spent holding the bar was reported as a percent of the maximum possible effect (% MPE, up to 60 s). Internal body temperature was measured via a rectal thermometer. Nociception was determined by assessing tail-flick latency, where mice were restrained with their tails placed ∼1 cm into 52 °C ± 2 °C water. The time (sec) until the tail was removed was measured, with observations ending at 20 s and represented as a % MPE. Locomotion and anxiety-like behaviour were assessed in the OFT. Mice were placed in an open space (90 cm × 90 cm) and recorded for 5 min. Total distance travelled (cm), velocity (cm/sec), time in the centre quadrant (sec), and central quadrant entries were measured with EthoVision XT (Noldus Information Technology Inc., Leesburg, VA).
In Phase I (Part B), after determining the timepoint at which blood CBG concentrations were highest for each respective route of administration, the timing for each measure in the tetrad was adjusted. An assessment was conducted in a new cohort consisting of both male and female mice (n = 4 per sex per route) receiving a dose of 10 mg/kg of CBG via i.v., i.p., or p.o. routes. For those administered with i.v. CBG, the timing was: catalepsy at 5 min, body temperature at 15 min, tail-flick latency at 20 min, and OFT at 25 min post-injection. For i.p. CBG, measurements were taken at 20 min for catalepsy, 25 min for body temperature, 30 min for tail-flick latency, and 35 min for OFT post-injection. For p.o. CBG, data collection was scheduled as follows: catalepsy at 170 min, body temperature at 175 min, tail-flick latency at 180 min, and OFT at 185 min post-injection.

C57BL/6Crl mice [2] = system: C57BL/6Crl mice; set-up: method as in Zagzoog et al., 2024; conditions: THC, ref Zagzoog et al., 2024, cited from earlier work
C57BL/6Crl mice [3] = system: C57BL/6Crl mice; set-up: method as in Zagzoog et al., 2024; conditions: THC, ref Zagzoog et al., 2024, cited from earlier work; remark: listed apart in the source
C57BL/6Crl mice [4] = system: C57BL/6Crl mice; set-up: method as in Zagzoog et al., 2024; conditions: THC, ref Zagzoog et al., 2024, cited from earlier work; remark: listed apart in the source
[5] = ref Zagzoog et al., 2024, cited from earlier work
[6] = THC 10 mg/kg i.v.; ref Zagzoog et al., 2024; cited from earlier work

CCCCCc1cc(O)c2c(c1)OC(C)(C)[C@@H]1CCC(C)=C[C@@H]21 [THC, Δ^9-Tetrahydrocannabinol]
OFT entries to the center (C57BL/6Crl mice [1]; 10 mg/kg i.p., compared to vehicle): entered the center fewer times than their vehicle-treated counterparts | OFT velocity (C57BL/6Crl mice [1]; 10 mg/kg i.v., 25 min post-administration, male and female mice): reduced velocity compared to vehicle treatment | OFT time in the center (C57BL/6Crl mice [1]; 10 mg/kg i.v.): Time in the center was reduced | OFT entries to the center (C57BL/6Crl mice [1]; 10 mg/kg i.v., compared to vehicle): entered the center fewer times than their vehicle-treated counterparts | OFT entries to the center (C57BL/6Crl mice [1]; 10 mg/kg p.o.): entered the center of the OFT fewer times than vehicle oral gavage mice | OFT time in the center (C57BL/6Crl mice [1]; 10 mg/kg p.o.): Time in the center was reduced | ED50 catalepsy (C57BL/6Crl mice [2]; both sexes): 6.9 mg/kg | ED50 catalepsy (C57BL/6Crl mice [2]; females): 6.0 mg/kg | ED50 catalepsy (C57BL/6Crl mice [2]; males): 8.6 mg/kg | ED50 body temperature (C57BL/6Crl mice [3]; both sexes): 7.8 mg/kg | ED50 body temperature (C57BL/6Crl mice [3]; females): 7.3 mg/kg | ED50 body temperature (C57BL/6Crl mice [3]; males): 8.3 mg/kg | ED50 tail-flick latency (C57BL/6Crl mice [4]; both sexes): 4.1 mg/kg | ED50 tail-flick latency (C57BL/6Crl mice [4]; females): 3.6 mg/kg | ED50 tail-flick latency (C57BL/6Crl mice [4]; males): 4.9 mg/kg | Cmax ([5]; 10 mg/kg THC i.p.): 377 ng/mL | C at 10 min (blood concentration 10 min post-administration) ([5]; THC i.v., males): 1,290 ng/mL | Cmax ([5]; THC p.o.): 149.5 ng/mL | p.o. Cmax as percent of i.p. Cmax ([5]; THC): 40% | mean blood concentration [6]: 526 ng/mL
